Experimental data reported in patent publication US20250188040A1, “PHARMACEUTICAL COMPOSITIONS COMPRISING WRN HELICASE INHIBITORS” (Vividion Therapeutics, Inc., priority 2022, published 2025).
pIC50: −log10 of the molar value. Read-outs that look alike come from different tables or passages of the source.

Key:
HCT 116 cells = experiment: Cell growth assay (CellTiter-Glo 2.0), HCT 116 MSI-H cell line; conditions: Homo sapiens, HCT-116, 120 h, read-out: Cell Growth Inhibition GI50 HCT-116
[1] = biological target: hWRN(519-1227)_C-H3CV-GFP-10His (Homo sapiens, UniProt Q14191); experiment: Helicase Assay for WRN Inhibition (ATP-dependent, fluorescence based)
Chain of hWRN(519-1227)_C-H3CV-GFP-10His (Q14191 519-1227): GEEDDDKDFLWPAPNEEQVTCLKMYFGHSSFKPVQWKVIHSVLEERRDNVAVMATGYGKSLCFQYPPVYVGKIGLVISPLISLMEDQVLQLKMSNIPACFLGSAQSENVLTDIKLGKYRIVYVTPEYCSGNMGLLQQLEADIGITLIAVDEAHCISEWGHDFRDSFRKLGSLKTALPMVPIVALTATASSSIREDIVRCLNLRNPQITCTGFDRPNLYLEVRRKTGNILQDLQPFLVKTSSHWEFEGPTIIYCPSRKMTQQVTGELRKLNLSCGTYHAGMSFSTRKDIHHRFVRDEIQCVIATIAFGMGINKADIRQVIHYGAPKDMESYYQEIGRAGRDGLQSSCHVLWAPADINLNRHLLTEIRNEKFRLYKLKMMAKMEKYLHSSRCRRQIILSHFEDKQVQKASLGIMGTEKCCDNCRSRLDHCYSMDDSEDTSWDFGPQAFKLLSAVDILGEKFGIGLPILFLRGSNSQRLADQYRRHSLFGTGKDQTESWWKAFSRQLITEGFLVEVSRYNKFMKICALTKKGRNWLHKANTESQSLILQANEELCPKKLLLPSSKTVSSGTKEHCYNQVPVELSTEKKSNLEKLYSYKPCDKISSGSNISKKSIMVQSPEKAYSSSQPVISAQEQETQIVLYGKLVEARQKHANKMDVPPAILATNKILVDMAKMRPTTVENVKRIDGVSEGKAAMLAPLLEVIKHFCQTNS

WRN C727 [2] = biological target: T1, WRN C727 (Homo sapiens, UniProt Q14191); experiment: Target engagement, in vitro (lysate), OCI-AML2; assay type: binding; conditions: read-out: OCI-AML2 WRN C727 TE50 in vitro (lysate)
T1 construct: endogenous in cells; host or cells: OCI-AML2
T1 sequence (Q14191 whole entry): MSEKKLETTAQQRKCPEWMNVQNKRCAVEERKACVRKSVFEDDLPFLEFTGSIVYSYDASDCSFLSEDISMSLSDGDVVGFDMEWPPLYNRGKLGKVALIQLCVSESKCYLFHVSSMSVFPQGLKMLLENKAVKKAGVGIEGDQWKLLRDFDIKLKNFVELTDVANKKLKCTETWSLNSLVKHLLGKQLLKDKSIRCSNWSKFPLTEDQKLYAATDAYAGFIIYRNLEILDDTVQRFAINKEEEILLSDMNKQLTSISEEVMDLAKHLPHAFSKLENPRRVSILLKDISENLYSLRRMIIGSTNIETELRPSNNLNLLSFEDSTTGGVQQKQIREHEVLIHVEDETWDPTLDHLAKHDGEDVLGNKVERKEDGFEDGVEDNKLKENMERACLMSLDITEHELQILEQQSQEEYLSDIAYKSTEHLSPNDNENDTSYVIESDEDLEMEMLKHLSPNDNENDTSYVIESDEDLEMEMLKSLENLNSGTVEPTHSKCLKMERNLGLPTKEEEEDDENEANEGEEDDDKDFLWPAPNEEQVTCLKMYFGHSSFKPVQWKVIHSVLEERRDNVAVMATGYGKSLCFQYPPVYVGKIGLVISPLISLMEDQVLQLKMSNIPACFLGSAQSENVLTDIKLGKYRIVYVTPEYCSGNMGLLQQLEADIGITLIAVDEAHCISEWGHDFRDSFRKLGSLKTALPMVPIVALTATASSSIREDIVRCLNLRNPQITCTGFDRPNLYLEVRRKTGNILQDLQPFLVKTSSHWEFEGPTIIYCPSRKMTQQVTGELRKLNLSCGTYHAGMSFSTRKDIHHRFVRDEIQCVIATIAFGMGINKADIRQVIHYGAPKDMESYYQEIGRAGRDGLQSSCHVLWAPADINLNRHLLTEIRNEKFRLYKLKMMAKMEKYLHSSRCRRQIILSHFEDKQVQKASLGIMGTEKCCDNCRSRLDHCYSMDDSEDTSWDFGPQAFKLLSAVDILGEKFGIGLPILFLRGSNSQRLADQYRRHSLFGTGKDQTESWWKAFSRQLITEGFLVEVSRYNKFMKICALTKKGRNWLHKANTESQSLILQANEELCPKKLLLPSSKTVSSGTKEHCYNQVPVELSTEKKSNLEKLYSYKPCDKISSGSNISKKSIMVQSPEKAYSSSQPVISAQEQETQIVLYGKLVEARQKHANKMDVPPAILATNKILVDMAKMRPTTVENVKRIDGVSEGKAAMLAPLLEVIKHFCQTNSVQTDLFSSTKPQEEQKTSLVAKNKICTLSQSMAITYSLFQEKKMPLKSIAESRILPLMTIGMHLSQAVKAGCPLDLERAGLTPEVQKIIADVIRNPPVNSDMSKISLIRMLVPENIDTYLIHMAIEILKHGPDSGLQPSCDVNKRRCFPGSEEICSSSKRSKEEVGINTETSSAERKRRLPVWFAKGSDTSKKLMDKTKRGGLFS
In short: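 Percent engagement of WRN C727 is expressed against DMSO-treated samples, measured by PRM mass spectrometry of streptavidin-enriched, probe-tagged tryptic peptides. Compound dose responses preceded probe labelling of solvent-exposed cysteines, in either living OCI-AML2 cells or their lysates.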

WRN C727 [3] = biological target: T1, WRN C727; experiment: Target engagement, in situ (cell), OCI-AML2; assay type: cell-based; conditions: OCI-AML2 cells, read-out: OCI-AML2 WRN C727 TE50 in situ (cell)
Procedure: Cells or cell lysates were treated with a dose response of compound followed by probe treatment, which labels solvent exposed cysteines. Proteins were enzymatically digested with trypsin and probe-labelled peptides were enriched with streptavidin. Isolated peptides were then separated using reversed-phase liquid chromatography on a C18 column (Dionex Ultimated 3000 nano-LC, Thermo). Peptides were analyzed by parallel reaction monitoring mass spectrometry (Exploris 120, Thermo).
Target engagement (%) is calculated relative to DMSO treated control samples.

SW480 cells = experiment: Cell growth assay (CellTiter-Glo 2.0), SW480 MSS cell line; conditions: Homo sapiens, SW480, 120 h, read-out: Cell Growth Inhibition GI50 SW480
[4] = WRN Helicase IC50, 30 min preincubation with ATP, 30 min reaction

Compound COCC(/C=C/S(C)(=O)=O)NC(=O)c1cnc(C(F)(F)C2CC2)nc1Oc1ccccc1 (stereo in doubt) [Example 226, (S,E)-2-(cyclopropyldifluoromethyl)-N-(1-methoxy-4-(methylsulfonyl)but-3-en-2-yl)-4-phenoxypyrimidine-5-carboxamide] has a GI50 (HCT 116 cells) of 0.023 µM, a pIC50 [1, 4] of 7.03 and a pIC50 (WRN C727 [2]) of 6.94. For the same compound, the pIC50 (WRN C727 [3]) was 7.80 and the GI50 (SW480 cells) was 27.9 µM.
With CC[C@@H](/C=C/S(C)(=O)=O)NC(=O)c1cnc(C2CCCC2)nc1Oc1ccccc1 [Example 6, (S,E)-2-cyclopentyl-N-(1-(methylsulfonyl)pent-1-en-3-yl)-4-phenoxypyrimidine-5-carboxamide] the GI50 (HCT 116 cells) was 0.214 µM, the pIC50 [1, 4] was 6.36 and the pIC50 (WRN C727 [2]) was 5.30. It also gave a pIC50 (WRN C727 [3]) of 6.70 and a GI50 (SW480 cells) of 11.8 µM.
With CCc1ncc(C(=O)NC/C=C/S(C)(=O)=O)c(Oc2ccccc2)n1 [Example 12, (E)-2-ethyl-N-(3-(methylsulfonyl)allyl)-4-phenoxypyrimidine-5-carboxamide] the GI50 (HCT 116 cells) was 8.9 µM, the pIC50 [1, 4] was 4.85 and the pIC50 (WRN C727 [2]) was less than 4.00. It also gave a pIC50 (WRN C727 [3]) of 4.30 and a GI50 (SW480 cells) greater than 10 µM.
With CC(C)c1ncc(C(=O)NC/C=C/S(C)(=O)=O)c(Oc2ccccc2)n1 [Example 14, (E)-2-isopropyl-N-(3-(methylsulfonyl)allyl)-4-phenoxypyrimidine-5-carboxamide] the GI50 (HCT 116 cells) was 5.4 µM, the pIC50 [1, 4] was 5.00 and the pIC50 (WRN C727 [2]) was 4.70. It also gave a pIC50 (WRN C727 [3]) of 5.68 and a GI50 (SW480 cells) greater than 10 µM.
In the case of CS(=O)(=O)/C=C/CNC(=O)c1cnc(C2CC2)nc1Oc1ccccc1 [Example 17, (E)-2-cyclopropyl-N-(3-(methylsulfonyl)allyl)-4-phenoxypyrimidine-5-carboxamide], the GI50 (HCT 116 cells) was 6.3 µM, the pIC50 [1, 4] was 5.12 and the pIC50 (WRN C727 [2]) was 4.10. It also gave a pIC50 (WRN C727 [3]) of 5.22 and a GI50 (SW480 cells) greater than 10 µM.
Work on C[C@@H](/C=C/S(C)(=O)=O)NC(=O)c1cnc(C2CC2)nc1Oc1ccccc1 [Example 18, (S,E)-2-cyclopropyl-N-(4-(methylsulfonyl)but-3-en-2-yl)-4-phenoxypyrimidine-5-carboxamide] yielded a GI50 (HCT 116 cells) of 0.38 µM, a pIC50 [1, 4] of 5.96 and a pIC50 (WRN C727 [2]) of 5.16. It also gave a pIC50 (WRN C727 [3]) of 5.82 and a GI50 (SW480 cells) greater than 10 µM.
For C[C@@H](/C=C/S(C)(=O)=O)NC(=O)c1cnc(CC2CC2)nc1Oc1ccccc1 [Example 35, (S,E)-2-(cyclopropylmethyl)-N-(4-(methylsulfonyl)but-3-en-2-yl)-4-phenoxypyrimidine-5-carboxamide], the GI50 (HCT 116 cells) was 0.171 µM, the pIC50 [1, 4] was 6.00 and the pIC50 (WRN C727 [2]) was 5.30. It also gave a pIC50 (WRN C727 [3]) of 6.54 and a GI50 (SW480 cells) of 18.1 µM.
C[C@@H](/C=C/S(C)(=O)=O)NC(=O)c1cnc(C2CCC2)nc1Oc1ccccc1 [Example 44, (S,E)-2-cyclobutyl-N-(4-(methylsulfonyl)but-3-en-2-yl)-4-phenoxypyrimidine-5-carboxamide] was tested, and the GI50 (HCT 116 cells) was 0.27 µM, the pIC50 [1, 4] was 6.04 and the pIC50 (WRN C727 [2]) was 5.93. It also gave a pIC50 (WRN C727 [3]) of 6.59 and a GI50 (SW480 cells) greater than 10 µM.
CC(C)(C)c1ncc(C(=O)NC/C=C/S(C)(=O)=O)c(Oc2ccccc2)n1 [Example 56, (E)-2-(tert-butyl)-N-(3-(methylsulfonyl)allyl)-4-phenoxypyrimidine-5-carboxamide] showed a GI50 (HCT 116 cells) of 0.378 µM, a pIC50 [1, 4] of 6.07 and a pIC50 (WRN C727 [2]) of 5.31. The pIC50 (WRN C727 [3]) was 6.37 and the GI50 (SW480 cells) was 10.6 µM.
Compound C[C@@H](/C=C/S(C)(=O)=O)NC(=O)c1cnc(-c2ccccc2)nc1Oc1ccccc1 [Example 80, (S,E)-N-(4-(methylsulfonyl)but-3-en-2-yl)-4-phenoxy-2-phenylpyrimidine-5-carboxamide] has a pIC50 [1, 4] of 3.83, a pIC50 (WRN C727 [2]) of less than 4.00 and a pIC50 (WRN C727 [3]) of 4.69.
CCc1cccc(Oc2nc(C3CCCC3)ncc2C(=O)N[C@@H](C)/C=C/S(C)(=O)=O)c1 [Example 108, (S,E)-2-cyclopentyl-4-(3-ethylphenoxy)-N-(4-(methylsulfonyl)but-3-en-2-yl)pyrimidine-5-carboxamide] was tested, and the pIC50 [1, 4] was 4.06, the pIC50 (WRN C727 [2]) was less than 4.00 and the pIC50 (WRN C727 [3]) was 4.30.
C[C@@H](/C=C/S(C)(=O)=O)NC(=O)c1cnc(C2CCCC2)nc1Oc1cc(F)cc(Cl)c1 [Example 122, (S,E)-4-(3-chloro-5-fluorophenoxy)-2-cyclopentyl-N-(4-(methylsulfonyl)but-3-en-2-yl)pyrimidine-5-carboxamide] gave a pIC50 [1, 4] of 4.66, a pIC50 (WRN C727 [2]) of less than 4.00 and a pIC50 (WRN C727 [3]) of 5.09.
Work on C[C@@H](/C=C/S(C)(=O)=O)NC(=O)c1cnc(C2CCCC2)nc1Oc1cc(Cl)cc(Cl)c1 [Example 123, (S,E)-2-cyclopentyl-4-(3,5-dichlorophenoxy)-N-(4-(methylsulfonyl)but-3-en-2-yl)pyrimidine-5-carboxamide] yielded a pIC50 [1, 4] of 4.54, a pIC50 (WRN C727 [2]) of less than 4.00 and a pIC50 (WRN C727 [3]) of 4.70.
For C[C@@H](/C=C/S(C)(=O)=O)NC(=O)c1cnc(C2CCCC2)nc1Oc1cccc2ccccc12 [Example 139, (S,E)-2-cyclopentyl-N-(4-(methylsulfonyl)but-3-en-2-yl)-4-(naphthalen-1-yloxy)pyrimidine-5-carboxamide], the pIC50 [1, 4] was 3.72, the pIC50 (WRN C727 [2]) was less than 4.00 and the pIC50 (WRN C727 [3]) was less than 4.00.
CS(=O)(=O)/C=C/CNC(=O)c1cnc(N2CCCC2)nc1Oc1ccccc1 [Example 167, (E)-N-(3-(methylsulfonyl)allyl)-4-phenoxy-2-(pyrrolidin-1-yl)pyrimidine-5-carboxamide] gave a pIC50 [1, 4] of 4.81, a pIC50 (WRN C727 [2]) of less than 4.00 and a pIC50 (WRN C727 [3]) of 5.15.
Work on CS(=O)(=O)C=C1CN(C(=O)c2cnc(C3CC3)nc2Oc2ccccc2)C1 [Example 188, (2-cyclopropyl-4-phenoxypyrimidin-5-yl)(3-((methylsulfonyl)methylene)azetidin-1-yl)methanone] yielded a GI50 (HCT 116 cells) of 0.391 µM, a pIC50 [1] of 5.96 and a pIC50 (WRN C727 [3]) of 6.31. For the same compound, the GI50 (SW480 cells) was greater than 15.2 µM.
Compound C[C@@H](/C=C/S(C)(=O)=O)NC(=O)c1cnc(C(C)(C)C)cc1Oc1ccccc1 [Example 253, (S,E)-6-(tert-butyl)-N-(4-(methylsulfonyl)but-3-en-2-yl)-4-phenoxynicotinamide] has a GI50 (HCT 116 cells) of 0.24 µM, a pIC50 [1, 4] of 6.03 and a pIC50 (WRN C727 [3]) of 6.70. For the same compound, the GI50 (SW480 cells) was greater than 10 µM.
C[C@@H](/C=C/S(C)(=O)=O)NC(=O)c1c(N)nc(C2CCCC2)nc1Oc1ccccc1 [Example 255, (S,E)-4-amino-2-cyclopentyl-N-(4-(methylsulfonyl)but-3-en-2-yl)-6-phenoxypyrimidine-5-carboxamide] gave a GI50 (HCT 116 cells) of 0.329 µM, a pIC50 [1, 4] of 5.94 and a pIC50 (WRN C727 [2]) of 5.42. It also gave a GI50 (SW480 cells) greater than 12.7 µM.
In the case of C[C@@H](/C=C/S(C)(=O)=O)NC(=O)c1cnc(CC(F)(F)F)nc1Oc1ccccc1 [Example 260, (S,E)-N-(4-(methylsulfonyl)but-3-en-2-yl)-4-phenoxy-2-(2,2,2-trifluoroethyl)pyrimidine-5-carboxamide], the GI50 (HCT 116 cells) was 1.8 µM, the pIC50 [1, 4] was 5.09 and the pIC50 (WRN C727 [2]) was less than 4.00. For the same compound, the GI50 (SW480 cells) was 41 µM.
For CS(=O)(=O)/C=C/[C@@H](NC(=O)c1cnc(CC(F)(F)F)nc1Oc1ccccc1)C1CC1 [Example 261, (S,E)-N-(1-cyclopropyl-3-(methylsulfonyl)allyl)-4-phenoxy-2-(2,2,2-trifluoroethyl)pyrimidine-5-carboxamide], the GI50 (HCT 116 cells) was 0.35 µM, the pIC50 [1, 4] was 6.06 and the pIC50 (WRN C727 [2]) was 5.75. It also gave a GI50 (SW480 cells) of 38 µM.
For C=C(C#N)CNC(=O)c1cnc(C2CCCC2)nc1Oc1ccccc1 [Example 268, N-(2-cyanoallyl)-2-cyclopentyl-4-phenoxypyrimidine-5-carboxamide], the GI50 (HCT 116 cells) was 2.1 µM, the pIC50 [1, 4] was 5.77 and the pIC50 (WRN C727 [2]) was 4.63. It also gave a GI50 (SW480 cells) of 14 µM.
C=C(C#N)CNC(=O)c1cnc(C2CC2)nc1Oc1ccccc1 [Example 269, N-(2-cyanoallyl)-2-cyclopropyl-4-phenoxypyrimidine-5-carboxamide] was tested, and the GI50 (HCT 116 cells) was 3.3 µM, the pIC50 [1] was 5.21 and the pIC50 (WRN C727 [2]) was 4.60. It also gave a GI50 (SW480 cells) of 17.9 µM.
C=C(C#N)CNC(=O)c1cnc(C(C)(C)C)nc1Oc1ccccc1 [Example 270, 2-(tert-butyl)-N-(2-cyanoallyl)-4-phenoxypyrimidine-5-carboxamide] was tested, and the GI50 (HCT 116 cells) was 0.51 µM, the pIC50 [1, 4] was 6.04 and the pIC50 (WRN C727 [2]) was 5.07. For the same compound, the GI50 (SW480 cells) was 11 µM.
For C=C(C#N)CNC(=O)c1cnc(C(C)(F)F)nc1Oc1ccccc1 [Example 271, N-(2-cyanoallyl)-2-(1,1-difluoroethyl)-4-phenoxypyrimidine-5-carboxamide], the GI50 (HCT 116 cells) was 0.397 µM, the pIC50 [1, 4] was 6.01 and the pIC50 (WRN C727 [2]) was 4.76. The GI50 (SW480 cells) was 12 µM.
With CCOc1cc(C2CCCC2)ccc1C(=O)NC/C=C/S(C)(=O)=O [Example 280, (E)-4-cyclopentyl-2-ethoxy-N-(3-(methylsulfonyl)allyl)benzamide] the pIC50 [1, 4] was 4.21, the pIC50 (WRN C727 [2]) was 5.07 and the pIC50 (WRN C727 [3]) was 4.67.
In the case of C[C@@H](/C=C/S(C)(=O)=O)NC(=O)c1ccc(C2CCCC2)cc1Oc1ccccc1 [Example 286, (S,E)-4-cyclopentyl-N-(4-(methylsulfonyl)but-3-en-2-yl)-2-phenoxybenzamide], the GI50 (HCT 116 cells) was 0.6 µM, the pIC50 [1, 4] was 5.85 and the pIC50 (WRN C727 [2]) was 5.45. The GI50 (SW480 cells) was greater than 10 µM.
